Like-named read-outs stand apart in the source and are kept apart here.
Experiments:
rat EP2 receptor [1] = biological target: T1, rat EP2 receptor (Rattus norvegicus (Rat), UniProt Q62928); assay: SEAP activity assay for EP2 agonist (STEP plate format); assay type: cell-based; conditions: read-out: STEP cell functional assay EC50 SEAP/EP2
Excerpt: (§1) Functional Cellular Assays (STEP Plate Format)
(§2) Procedure of SEAP Activity Assay for EP2/EP4 Agonist
(§3) 3. […] In addition each concentration had triplicates.
(§4) 4. […] Cover the plate with the lid.

calvarial bone defect = assay: Rat calvarial defect model (bone formation); assay type: in vivo, female Sprague Dawley rats; conditions: rat cranial defect 2.6 mm, drug in calcium phosphate cement/demineralized bone matrix, eight weeks
rat EP4 receptor [2] = biological target: T2, rat EP4 receptor (Rattus norvegicus (Rat), UniProt P43114); assay: cAMP level assay for EP4 agonist (STEP plate format); assay type: cell-based; conditions: read-out: STEP cell functional assay EC50 cAMP/EP4
Excerpt: as §1
(§5) Procedure of cAMP Assay for EP2/EP4 Agonist
as §3
(§6) 6. Aspirate the supernatant.

[3] = biological target: Human Prostanoid EP4 Receptor (Homo sapiens (Human), UniProt P35408); assay: Radioligand binding assay, agonist site of human prostanoid EP4 receptor in transfected HEK-293 cells; conditions: for IC50: read-out: hEP4 receptor binding IC50; for Ki: read-out: hEP4 receptor binding Ki
Procedure: Radioligand Binding Assay for the Evaluation of the Affinity of Compounds for the Agonist Site of the Human Prostanoid EP4 Receptor in Transfected HEK-293 Cells
Following incubation, the samples are filtered rapidly under vacuum through glass fiber filters (GF/B, Packard) presoaked with 0.3% PEI and rinsed several times with ice-cold 50 mM Tris-HCl using a 96-sample cell harvester (Unifilter, Packard). The filters are dried then counted for radioactivity in a scintillation counter (Topcount, Packard) using a scintillation cocktail (Microscint 0, Packard).

rat EP4 receptor [4] = biological target: T2, rat EP4 receptor; assay: SEAP activity assay for EP4 agonist (STEP plate format); assay type: cell-based; conditions: read-out: STEP cell functional assay EC50 SEAP/EP4
Excerpt: as §1, §2, §3, §4

rat EP2 receptor [5] = biological target: T1, rat EP2 receptor; assay: cAMP level assay for EP2 agonist (STEP plate format); assay type: cell-based; conditions: cAMP readout, read-out: STEP cell functional assay EC50 cAMP/EP2
Excerpt: as §1, §5, §3, §6

[6] = SEAP luminescence, 6-8 hours of stimulation
[7] = [3H]PGE2 0.5 nM, HEK-293 cell membrane homogenates

T2 sequence (P43114 whole entry): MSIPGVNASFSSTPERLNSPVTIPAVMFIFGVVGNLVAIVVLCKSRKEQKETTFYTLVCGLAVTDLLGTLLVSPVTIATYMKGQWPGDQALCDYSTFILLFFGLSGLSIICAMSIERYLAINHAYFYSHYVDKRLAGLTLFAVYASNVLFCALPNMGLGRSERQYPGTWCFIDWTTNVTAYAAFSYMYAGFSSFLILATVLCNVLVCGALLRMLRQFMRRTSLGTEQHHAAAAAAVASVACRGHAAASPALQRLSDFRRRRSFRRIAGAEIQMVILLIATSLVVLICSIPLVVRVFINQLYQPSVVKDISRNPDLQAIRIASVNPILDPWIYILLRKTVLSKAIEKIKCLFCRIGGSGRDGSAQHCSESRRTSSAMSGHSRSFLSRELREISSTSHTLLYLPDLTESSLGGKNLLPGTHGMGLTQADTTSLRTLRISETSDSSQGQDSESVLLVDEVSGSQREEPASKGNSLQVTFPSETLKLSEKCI
Chain of Human Prostanoid EP4 Receptor (P35408 whole entry): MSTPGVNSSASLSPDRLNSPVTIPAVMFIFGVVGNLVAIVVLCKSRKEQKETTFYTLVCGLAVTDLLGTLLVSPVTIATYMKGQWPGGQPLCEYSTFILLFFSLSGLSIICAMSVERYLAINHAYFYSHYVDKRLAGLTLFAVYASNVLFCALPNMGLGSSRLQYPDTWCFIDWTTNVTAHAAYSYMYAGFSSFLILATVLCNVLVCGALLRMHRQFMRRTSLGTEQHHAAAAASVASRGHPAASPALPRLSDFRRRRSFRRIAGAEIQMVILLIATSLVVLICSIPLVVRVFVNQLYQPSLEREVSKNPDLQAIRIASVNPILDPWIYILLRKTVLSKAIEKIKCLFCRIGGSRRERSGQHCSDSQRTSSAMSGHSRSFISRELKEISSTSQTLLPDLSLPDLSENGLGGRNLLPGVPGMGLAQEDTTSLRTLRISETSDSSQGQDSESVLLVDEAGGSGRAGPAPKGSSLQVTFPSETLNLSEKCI
T1 sequence (Q62928 whole entry): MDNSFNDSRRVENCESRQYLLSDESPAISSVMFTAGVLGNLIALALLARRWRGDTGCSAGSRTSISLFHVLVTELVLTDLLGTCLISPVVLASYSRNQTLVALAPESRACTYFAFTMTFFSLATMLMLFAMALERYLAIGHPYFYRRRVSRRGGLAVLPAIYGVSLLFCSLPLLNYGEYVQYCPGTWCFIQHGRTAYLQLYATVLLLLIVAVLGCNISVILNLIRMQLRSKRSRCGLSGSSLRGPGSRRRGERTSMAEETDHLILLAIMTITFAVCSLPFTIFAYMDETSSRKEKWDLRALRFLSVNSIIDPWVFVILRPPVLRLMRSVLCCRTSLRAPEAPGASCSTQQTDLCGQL

| EC50 (rat EP2 receptor [1]; [6]) [nM] | EC50 (rat EP4 receptor [2]; cAMP by ELISA, 30 minutes, 500 μM IBMX) [nM] | IC50 [3, 7] [nM] | Ki [3, 7] [nM] | EC50 (rat EP4 receptor [4]; [6]) [nM] | EC50 (rat EP4 receptor [2]; cAMP readout, EP4) [nM] | EC50 (rat EP2 receptor [5]) [nM] | EC50 (rat EP2 receptor [1]; SEAP readout, EP2) [nM] | IC50 ([3]; human EP4 receptor binding) [nM] | Ki ([3]; human EP4 receptor binding) [nM] | EC50 (rat EP4 receptor [4]; SEAP readout, EP4) [nM] | SMILES | Healing of a calvarial bone defect (calvarial bone defect) |
| --- | --- | --- | --- | --- | --- | --- | --- | --- | --- | --- | --- | --- |
| > 1000 | 0.24 ± 0.08 | 1.3 | 0.49 | 0.038 ± 0.037 |  |  |  |  |  |  | CCC#CC[C@H](C)[C@H](O)/C=C/[C@H]1CC(F)(F)C(=O)N1CCCCCCC(=O)O [Example 2C, 7-((R)-3,3-difluoro-5-((3S,4S,E)-3-hydroxy-4-methylnon-1-en-6-yn-1-yl)-2-oxopyrrolidin-1-yl)heptanoic acid] | Accelerated Healing |
|  |  |  |  |  | 0.0029 ± 0.0008 | 1310 |  |  |  |  | C[C@@H](CCCc1ccccc1)[C@H](O)CC[C@H]1CC(F)(F)C(=O)N1CCCc1ccc(C(=O)O)s1 [Example 28C-H2, 5-(3-((S)-3,3-difluoro-5-((3R,4S)-3-hydroxy-4-methyl-7-phenylheptyl)-2-oxopyrrolidin-1-yl)propyl)thiophene-2-carboxylic acid] |  |
|  |  |  |  |  | 0.079 |  | 326 | 0.28 | 0.1 | 0.063 | CCCCC[C@H](O)/C=C/[C@H]1CC(F)(F)C(=O)N1CCCc1ccc(C(=O)O)s1 [Example 33C, 5-(3-((R)-3,3-difluoro-5-((S,E)-3-hydroxyoct-1-en-1-yl)-2-oxopyrrolidin-1-yl)propyl)thiophene-2-carboxylic acid] |  |
